Measurements taken from PubChem BioAssay AID330 (DTP/NCI, 2004).
Values joined by “and” are separate entries in the source; they are usually repeats but may differ in a detail not shown here. Equal values may be shown once. Inconclusive results and toxic doses are left out. Rule for the calls: active = survival T/C of 150% or more; inactive = T/C below 125% in these data.

Tested on: P388 leukemia ip, CD2F1 mice, survival T/C
Experiment: NCI In Vivo Anticancer Drug Screen. Data for tumor model P388 Leukemia (intraperitoneal) in CD2F1 (CDF1) mice
Conditions: endpoint: median survival time, higher = longer survival
Procedure, shortened: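 Mice carrying the transplanted tumor received test compound or vehicle. Survival was recorded in each group, and the value is the treated-group measurement divided by that of the vehicle-treated control group.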

[1] = dose: 60.0 mg/kg/injection, schedule: Q01DX005 (ip), vehicle: saline
[2] = dose: 120.0 mg/kg/injection, schedule: Q01DX005 (ip), vehicle: saline
[3] = dose: 240.0 mg/kg/injection, schedule: Q01DX005 (ip), vehicle: saline
[4] = dose: 50.0 mg/kg/injection, schedule: Q01DX005 (ip), vehicle: saline with Tween-80
[5] = dose: 100.0 mg/kg/injection, schedule: Q01DX005 (ip), vehicle: saline with Tween-80
[6] = dose: 200.0 mg/kg/injection, schedule: Q01DX005 (ip), vehicle: saline with Tween-80
[7] = dose: 25.0 mg/kg/injection, schedule: Q01DX005 (ip), vehicle: Klucel (hydroxypropylcellulose) (HPC)
[8] = dose: 50.0 mg/kg/injection, schedule: Q01DX005 (ip), vehicle: Klucel (hydroxypropylcellulose) (HPC)
[9] = dose: 100.0 mg/kg/injection, schedule: Q01DX009 (ip), vehicle: saline with Tween-80
[10] = dose: 100.0 mg/kg/injection, schedule: Q01DX005 (ip), vehicle: Klucel (hydroxypropylcellulose) (HPC)
[11] = dose: 200.0 mg/kg/injection, schedule: Q01DX005 (ip), vehicle: Klucel (hydroxypropylcellulose) (HPC)
[12] = dose: 50.0 mg/kg/injection, schedule: Q01DX009 (ip), vehicle: Klucel (hydroxypropylcellulose) (HPC)
[13] = dose: 100.0 mg/kg/injection, schedule: Q01DX009 (ip), vehicle: Klucel (hydroxypropylcellulose) (HPC)
[14] = dose: 50.0 mg/kg/injection, schedule: Q01DX009 (ip), vehicle: saline
[15] = dose: 100.0 mg/kg/injection, schedule: Q01DX009 (ip), vehicle: saline
[16] = dose: 200.0 mg/kg/injection, schedule: Q01DX009 (ip), vehicle: saline
[17] = dose: 60.0 mg/kg/injection, schedule: Q01DX005 (ip), vehicle: saline with Tween-80
[18] = dose: 120.0 mg/kg/injection, schedule: Q01DX005 (ip), vehicle: saline with Tween-80

Measured: T/C

COC1=C(C)C(=O)C2=C(C1=O)[C@@H]1[C@@H]3Cc4c(OC(=O)CO)c(C)c(OC)c(O)c4[C@H](CNC(=O)C(C)=O)N3[C@@H](C#N)[C@H](C2)N1C
inactive: dose: 0.63 mg/kg/injection, schedule: Q01DX005 (ip), vehicle: Klucel (hydroxypropylcellulose) (HPC) 106 % of control | dose: 1.25 mg/kg/injection, schedule: Q01DX005 (ip), vehicle: Klucel (hydroxypropylcellulose) (HPC) 115 % of control | dose: 2.25 mg/kg/injection, schedule: Q01DX005 (ip), vehicle: Klucel (hydroxypropylcellulose) (HPC) 120 % of control | dose: 2.5 mg/kg/injection, schedule: Q01DX005 (ip), vehicle: Klucel (hydroxypropylcellulose) (HPC) 115 % of control | dose: 625.0 micrograms/kg/injection, schedule: Q01DX005 (ip), vehicle: Klucel (hydroxypropylcellulose) (HPC) 103 % of control | dose: 1250.0 micrograms/kg/injection, schedule: Q01DX005 (ip), vehicle: Klucel (hydroxypropylcellulose) (HPC) 110 % of control | dose: 2500.0 micrograms/kg/injection, schedule: Q01DX005 (ip), vehicle: Klucel (hydroxypropylcellulose) (HPC) 116 % of control | dose: 5000.0 micrograms/kg/injection, schedule: Q01DX005 (ip), vehicle: Klucel (hydroxypropylcellulose) (HPC) 118 % of control

Cc1ccc(C(C)(C)C[P+](C)(c2ccccc2)c2ccccc2)cc1
inactive: dose: 12.5 mg/kg/injection, schedule: Q01DX009 (ip), vehicle: Klucel (hydroxypropylcellulose) (HPC) 105 % of control | dose: 25.0 mg/kg/injection, schedule: Q01DX009 (ip), vehicle: Klucel (hydroxypropylcellulose) (HPC) 103 % of control

NC(=O)C(CCCCNc1c(C(=O)O)cc([N+](=O)[O-])cc1[N+](=O)[O-])NC(=O)c1ccccc1 (configuration not stated)
inactive: [1] 100 % of control | [2] 105 % of control | [3] 100 % of control

CSC(C(=O)O)c1cc(-c2c(Cl)cccc2Cl)no1 (configuration not stated)
inactive: [4] 104 % of control | [5] 105 % of control | [6] 107 % of control

CC(=O)Nc1cccc(/C(C)=N/NC(N)=O)c1
inactive: [4] 91 % of control | [5] 91 % of control | [6] 89 % of control

CC(=O)OCC12C(=O)CC(C)C3(CC(c4ccoc4)OC3=O)C1(C)CCCC21CO1 (configuration not stated)
inactive: dose: 3.12 mg/kg/injection, schedule: Q01DX005 (ip), vehicle: Klucel (hydroxypropylcellulose) (HPC) 97 % of control | dose: 6.25 mg/kg/injection, schedule: Q01DX005 (ip), vehicle: Klucel (hydroxypropylcellulose) (HPC) 97 % of control | dose: 12.5 mg/kg/injection, schedule: Q01DX005 (ip), vehicle: Klucel (hydroxypropylcellulose) (HPC) 99 % of control | [7] 92 % of control | [8] 94 % of control

CS(=O)CC(=N\O)/C(CS(C)=O)=N\O (configuration not stated)
inactive: [1] 104 % of control | [2] 108 % of control | [3] 103 % of control

COc1cccc2c1OC1(N3CCOCC3)CCCCC1C2C[N+](=O)[O-] (configuration not stated)
inactive: dose: 50.0 mg/kg/injection, schedule: Q01DX009 (ip), vehicle: saline with Tween-80 90 % of control | [9] 93 % of control | dose: 200.0 mg/kg/injection, schedule: Q01DX009 (ip), vehicle: saline with Tween-80 89 % of control

COc1cc2c3cc1Oc1cc(ccc1O)C[C@@H]1c4c(cc(OC)c(O)c4Oc4ccc(cc4)C[C@@H]3[N+](C)(C)CC2)CC[N+]1(C)C
inactive: dose: 0.06 mg/kg/injection, schedule: Q01DX009 (ip), vehicle: saline with Tween-80 96 % of control | dose: 0.13 mg/kg/injection, schedule: Q01DX009 (ip), vehicle: saline with Tween-80 92 % of control | dose: 0.25 mg/kg/injection, schedule: Q01DX009 (ip), vehicle: saline with Tween-80 89 % of control

COc1cc([C@@H]2c3cc(O)c(OC)cc3C[C@H]3C(=O)OC[C@@H]23)ccc1O
inactive: [8] 96 % of control | [10] 96 % of control | [11] 100 % of control

Oc1ccccc1N=Cc1cccs1
inactive: [12] 109 % of control | [13] 105 % of control | dose: 200.0 mg/kg/injection, schedule: Q01DX009 (ip), vehicle: Klucel (hydroxypropylcellulose) (HPC) 124 % of control

c1ccc2c(c1)SP(P1Sc3ccccc3S1)S2
inactive: [12] 100 % of control | [13] 107 % of control

C=CC1OCCCO1
inactive: [1] 100 % of control | [2] 100 % of control

Cc1cc2nc(Nc3nc(C)c(C)c(=O)[nH]3)[nH]c2cc1C
inactive: [14] 108 % of control | [15] 102 % of control | [16] 90 % of control

COc1ccc(/C=C/C(=N/Nc2ccccc2)C(C)CN(C)C)cc1 (configuration not stated)
inactive: [17] 101 % of control | [18] 95 % of control

CCCCCCCCCCCCC[N+]1([O-])CCCCC1
inactive: dose: 12.5 mg/kg/injection, schedule: Q01DX009 (ip), vehicle: saline 95 % of control | dose: 25.0 mg/kg/injection, schedule: Q01DX009 (ip), vehicle: saline 92 % of control | [14] 87 % of control and 89 % of control

Cn1cc(Cl)nc1CO
inactive: dose: 50.0 mg/kg/injection, schedule: Q04DX003 (ip), vehicle: saline sonified 95 % of control | dose: 100.0 mg/kg/injection, schedule: Q04DX003 (ip), vehicle: saline sonified 100 % of control | dose: 200.0 mg/kg/injection, schedule: Q04DX003 (ip), vehicle: saline sonified 100 % of control

COC1CC(CC2CCC(C)C(C(C)C(=O)O)O2)OC2(OC(C)(C3CCC(C)(C4OC(C5OC(O)(CO)C(C)CC5C)CC4C)O3)CC2C)C1C (configuration not stated)
inactive: dose: 0.08 mg/kg/injection, schedule: Q01DX009 (ip), vehicle: Klucel (hydroxypropylcellulose) (HPC) 103 % of control | dose: 0.15 mg/kg/injection, schedule: Q01DX009 (ip), vehicle: Klucel (hydroxypropylcellulose) (HPC) 109 % of control | dose: 0.31 mg/kg/injection, schedule: Q01DX009 (ip), vehicle: Klucel (hydroxypropylcellulose) (HPC) 104 % of control and 105 % of control and 107 % of control | dose: 2.5 mg/kg/injection, schedule: Q01DX009 (ip), vehicle: Klucel (hydroxypropylcellulose) (HPC) 102 % of control and 123 % of control and 91 % of control | dose: 5.0 mg/kg/injection, schedule: Q01DX009 (ip), vehicle: Klucel (hydroxypropylcellulose) (HPC) 100 % of control

CCCCCN(CCCCC)CC(O)c1ccc(OC)c2ccccc12 (configuration not stated)
inactive: [8] 88 % of control | [10] 88 % of control

S=C(Oc1ccccc1)Oc1ccccc1
inactive: dose: 6.25 mg/kg/injection, schedule: Q01DX009 (ip), vehicle: saline with Tween-80 95 % of control | dose: 12.5 mg/kg/injection, schedule: Q01DX009 (ip), vehicle: saline with Tween-80 91 % of control | [9] 93 % of control

COc1ccc(CC(N)c2ccc(OC)c(OC)c2)cc1O (configuration not stated)
inactive: [17] 114 % of control | [18] 100 % of control | dose: 240.0 mg/kg/injection, schedule: Q01DX005 (ip), vehicle: saline with Tween-80 97 % of control

c1ccc(-c2[nH]c3ccccc3c2-c2c(-c3ccccc3)[nH]c3ccccc23)cc1
inactive: [14] 100 % of control | [15] 96 % of control | [16] 98 % of control

CC[C@@]12C[C@]1(C(=O)OC)C(=O)N1CCc3c([nH]c4ccccc34)[C@H]12
inactive: [8] 90 % of control | [10] 96 % of control | [11] 91 % of control

CCNC(=O)/C=C(C)/C=C/C=C(C)/C=C/c1c(C)cc(OC)c(C)c1C
inactive: [7] 86 % of control | [8] 90 % of control | [10] 100 % of control and 101 % of control | [11] 108 % of control
